Tests used:
[1] = system: STI-571 resistant clone of a BaF3-BCR/ABL; assay: Soft agar colony formation of STI-571 resistant BaF3-BCR/ABL clone; conditions: STI-571 resistant BaF3-BCR/ABL clone compared with parental cells
Source text: Macroscopic colonies were counted in duplicate plates on day 10. In some cases colony numbers were normalized by dividing the number of colonies under a given condition by the number of colonies formed in the presence of no drug (DMSO alone).

[2] = system: STI-571 sensitive or resistant BCR/ABL positive cell lines (BaF3-BCR/ABL, K562, LAMA-84, AR230); assay: Cell viability by trypan blue dye exclusion; type: cell-based; conditions: SCH66336 alone at concentrations up to 5 μM, STI-571 sensitive or resistant cell lines
Method: FIGS. 9A-9E are graphs showing that SCH66336 and STI571 in combination induce apoptosis in STI571 resistant cells. […] Viability of cells was assessed at daily intervals by dye exclusion.

[3] = system: parental BaF3-BCR/ABL cells; assay: Apoptosis by annexin V staining (ApoAlert Annexin V kit, FACS); conditions: 2.0 uM SCH66336, 48 hours
Method: (§1) Some cells were lysed and subjected to immunoblotting with caspase-3 antibody (FIG. 8A) or analyzed for annexin V staining (FIG. 8B) by FACS using the Apo-Alert kit (Clontech).
Apoptosis was measured in cells after incubation with drugs by staining for annexin-positive cells using the ApoAlert Annexin V kit (Clontech, Palo Alto, Calif.). Flow cytometry analysis was performed using Cell Quest (Becton Dickinson, Franklin Lakes, N.J.).

[4] = system: parental BaF3-BCR/ABL cells; assay: Caspase-3 immunoblotting (cleavage of procaspase-3); conditions: protein lysates of treated cells
Method: as §1
Cells were washed in cold PBS and lysed in NP-40 lysis buffer (1% NP-40, 150 mM NaCl, 20 mM Tris (pH 7.4), 10% glycerol, 10 mM NaVO3, 1 mM ZnCl2, 1 mM MgCl2, and 2 mM PMSF). Approximately 50 ug of protein were separated by SDS-PAGE and electrophoretically transferred to nitrocellulose membrane using standard protocols. Membranes were incubated with primary and secondary antibodies in TBST buffer (20 mM Tris-HCl [pH 7.4], 500 mM NaCl, 0.01% Tween 20) containing 5% dry milk. Immunoreactivity was detected by enhanced chemiluminescence.

[5] = system: STI-571 resistant LAMA84 cells; assay: Proliferation in liquid culture; type: cell-based, human; conditions: STI-571 resistant LAMA84, similar manner as parental line
[6] = system: BaF3-BCR/ABL cells; assay: Soft agar colony formation of BaF3-BCR/ABL cells; type: cell-based, murine; conditions: Mus musculus, 240 h; BaF3-BCR/ABL cells in soft agar, colonies counted day 10; read-out: IC50, inhibition of soft agar colony number
[7] = system: STI-571 resistant hematopoietic progenitors from CML patients; assay: Methylcellulose hematopoietic colony assay of primary cells from CML patients relapsed on STI-571; type: cell-based; conditions: Homo sapiens, read-out: IC50, colony formation of STI-571 resistant hematopoietic progenitors
Method: Numbers are normalized to control (DMSO) and are presented as means +/−S.D. of duplicate plates.
Low density mononucleocytes were isolated from either fresh or cryo-preserved peripheral blood using Lymphoprep (Nycomed, Oslo, Norway). […] All clonogenic assays were performed in duplicate.

[8] = system: STI-571 resistant BaF3-BCR/ABL cells; assay: Proliferation in liquid culture, viable cells by dye exclusion; type: cell-based, murine; conditions: 0.5 or 1.0 μM STI-571 or increasing concentrations of SCH66336
Method: Viable cells were assessed at daily intervals by dye exclusion.

[9] = system: STI-571 resistant AR230 cells; assay: Proliferation in liquid culture; type: cell-based, human; conditions: STI-571 resistant AR230, similar manner as parental line
[10] = system: STI-571 resistant K562 cells; assay: Proliferation in liquid culture; type: cell-based, human; conditions: STI-571 resistant K562, similar manner as parental line

IC50 [6]: ~100 nM
IC50 [7]: 250 to 500 nM
SMILES: NC(=O)N1CCC(CC(=O)N2CCC([C@H]3c4ncc(Br)cc4CCc4cc(Cl)cc(Br)c43)CC2)CC1 [SCH66336]
effect on soft agar colony formation of STI-571 resistant clone [1]: as sensitive, if not more so
effect on cell viability [2]: little effect on cell viability
levels of annexin V staining [3]: Low levels of annexin V staining
levels of active caspase-3 (immunoblot) [4]: low levels of active caspase-3
effect on proliferation [5]: inhibits the proliferation
effect on growth / proliferation [8]: dose-dependent inhibition of proliferation
effect on proliferation [9]: inhibits the proliferation
effect on proliferation [10]: inhibits the proliferation
